Assay results as given in paper PMC12583498, “Distinct filament morphology and membrane tethering features of the dual FtsZ paralogs in Odinarchaeota” (The EMBO journal, 2025).
Blank lines part the entries; values can stand above or below the compound they belong to.

Experiments:
[1] = target: T1, OdinFtsZ1 (Candidatus Odinarchaeum yellowstonii, UniProt A0AAF0ID74); experiment: cryo-EM structure of filament; format: binding; conditions: […] GMPCPP, […] MgCl2, pH […], on ice; nucleotide pocket at subunit interface; map resolution […] A
T1 construct: full length (363 residues by primer name), synthetic gene, 6His-bdSUMO tag cleaved by Ulp protease, E. coli BL21(DE3); residues 34-332 modelled in cryo-EM
T1 sequence (A0AAF0ID74 1-360): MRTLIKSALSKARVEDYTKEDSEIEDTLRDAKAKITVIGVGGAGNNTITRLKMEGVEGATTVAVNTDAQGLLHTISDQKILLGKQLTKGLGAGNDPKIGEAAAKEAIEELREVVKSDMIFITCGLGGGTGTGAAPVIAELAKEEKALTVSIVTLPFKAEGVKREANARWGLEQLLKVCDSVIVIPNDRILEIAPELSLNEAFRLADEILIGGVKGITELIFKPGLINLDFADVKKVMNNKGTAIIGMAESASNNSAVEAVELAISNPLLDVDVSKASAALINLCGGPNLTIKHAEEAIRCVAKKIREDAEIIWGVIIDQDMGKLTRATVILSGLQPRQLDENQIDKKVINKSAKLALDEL

[2] = target: T2, OdinFtsZ2 (Candidatus Odinarchaeum yellowstonii, UniProt A0AAF0D3V8); experiment: negative-stain TEM of polymerization; format: biochemical; conditions: […] nucleotide, […] MgCl2, pH […] KCl, […] °C
T2 construct: gene ftsZ; full length, synthetic gene, 6His-bdSUMO tag cleaved by Ulp protease, E. coli BL21(DE3); assembles into stacked rings
T2 sequence (A0AAF0D3V8 1-402): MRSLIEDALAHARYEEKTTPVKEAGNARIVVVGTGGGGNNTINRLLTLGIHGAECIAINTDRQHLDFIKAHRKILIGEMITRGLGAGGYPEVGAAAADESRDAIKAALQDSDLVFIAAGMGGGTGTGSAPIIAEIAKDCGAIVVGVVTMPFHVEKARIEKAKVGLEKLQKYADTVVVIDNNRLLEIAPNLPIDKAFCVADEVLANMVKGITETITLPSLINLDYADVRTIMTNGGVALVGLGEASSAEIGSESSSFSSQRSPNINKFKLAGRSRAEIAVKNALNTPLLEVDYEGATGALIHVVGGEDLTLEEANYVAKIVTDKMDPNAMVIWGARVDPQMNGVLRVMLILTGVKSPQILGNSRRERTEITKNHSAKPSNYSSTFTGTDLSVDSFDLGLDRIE

[3] = target: T1, OdinFtsZ1; experiment: light scattering and sedimentation assay of polymerization; format: biochemical; conditions: […] GTP, […] Mg2+, pH […] KCl, […] °C
[4] = target: T2, OdinFtsZ2; experiment: […] degree light scattering and TEM / cryo-EM of polymerization; format: biochemical; conditions: […] GTP, […] Mg2+, pH […] KCl, […] °C; nucleotide-dependent assembly
[5] = target: OdinSepF (Candidatus Odinarchaeum yellowstonii LCB_4); experiment: SEC-MALS; Superdex 75 Increase 10/300 GL, HK50 buffer (50 mM HEPES pH 7.4, 50 mM KCl), room temperature, OdinSepF 2 mg/ml, 100 μl

Compound: Nc1nc2c(ncn2[C@@H]2O[C@H](COP(=O)(O)CP(=O)(O)OP(=O)(O)O)[C@@H](O)[C@H]2O)c(=O)[nH]1 [GMPCPP]
cryo-EM structure of filament [1]: A non-protein density was detected within the nucleotide-binding pocket using Servalcat

Compound: Nc1nc2c(ncn2[C@@H]2O[C@H](COP(=O)(O)OP(=O)(O)OP(O)(O)=S)[C@@H](O)[C@H]2O)c(=O)[nH]1 [GTPγS]
negative-stain TEM of polymerization [2]: OdinFtsZ2 formed highly curved, stacked ring-like structures when provided with GTP or GTPγS

Compound: Nc1nc2c(ncn2[C@@H]2O[C@H](COP(=O)(O)OP(=O)(O)OP(=O)(O)O)[C@@H](O)[C@H]2O)c(=O)[nH]1 [GTP]
light scattering and sedimentation assay of polymerization [3]: GTP addition significantly enhanced the amount of OdinFtsZ1 in the pellet fraction
90 degree light scattering and TEM / cryo-EM of polymerization [4]: OdinFtsZ2 formed highly curved, stacked ring-like structures when provided with GTP or GTPγS

stoichiometry N [5]: 2
Compound: OdinSepF (natural protein)
